From EP0623599A1 (CIBA-GEIGY AG, priority 1993, dated 1994)
Read-outs that look alike come from different tables or passages of the source.

What was measured:
[1] = 30% methanol phosphate buffer, pH 6
Text: (§2) Die Fluorophore werden in einem Gemisch aus 30 Vol.-% Methanol und 70 Vol.-% Phosphatpuffer gelöst und verschiedene pH-Werte zwischen 6 und 13 eingestellt. Die Messlösungen werden in eine Küvette gefüllt und die Fluoreszenzintensität mit einem Spektrophotometer gemessen. Die Fluoreszenzintensität wird als Funktion des pH-Wertes aufgetragen und aus dem Wendepunkt der Kurve der pKa-Wert ermittelt. […] Die Konzentration der Fluorophore beträgt jeweils 10⁻⁷ mol/l.

[2] = Fluorescence change between protonated and deprotonated form of the fluorophore; assay type: physicochemical; settings: in Tetrahydrofuran, pH set with 1 M HCl or 1,0 M NaOH, fluorophore 10⁻⁷ mol/l
Text: Die Ergebnisse sind in Tabelle 2 angegeben.

[3] = Optical potassium determination with sensor membrane (decrease of fluorescence intensity); settings: aqueous KCl, 1 ml/min, PVC membrane with Valinomycin
Procedure: a) Als Trägermaterial wird vorbehandeltes Glas verwendet. Runde Glasscheiben (Durchmesser 18 mm, Dicke 0,17 mm) werden eine Stunde in eine Lösung von 10 Vol-% Dimethyl-dodecylchlorsilan in Isopropanol getaucht. Danach wäscht man die Glasscheiben nacheinander mit je 200 ml Isopropanol, Ethanol und Methanol und trocknet 1 h bei 110 °C. Die hydrophobisierte Oberfläche weist eine verbesserte Haftung der Membranschicht auf. b) Herstellung der Beschichtungslösung. Die folgenden Bestandteile werden zusammen mit 1,5 ml Tetrahydrofuran in eine 2 ml Flasche gegeben und bis zur Lösung der Komponenten geschüttelt: • 1. 80 mg Polyvinylchlorid (Fluka, 81392) • 2. 160 mg Bis-(2-ethylhexyl)sebacat (Weichmacher) • 3. 5 mg Valinomycin • 4. 1,5 mg Kalium-tetrakis(4-fluorphenyl)borat • 5. 2 mg Fluorophor
c) Herstellung von beschichteten Glasträgern. Die Glasträger werden in der Kammer eines Schleuderbeschichtungsapparats (Optocoat OS 35var, Willer Company, CH-8484 Weisslingen) befestigt. Die Kammer wird mit 10 ml Tetrahydrofuran gespült und 2 min bei 3800 Umdrehungen/Minute rotiert. Danach werden 50 µl der jeweiligen Beschichtungslösung auf den Glasträger pipettiert und der Glasträger noch 10 sec rotiert. Man entfernt den mit einer Membran beschichteten Glasträger und trocknet ihn 10 min an der Luft. d) Spektrale Eigenschaften der Membranen. Die beschichteten Glasträger werden in einer optischen Zelle befestigt, in der die Membran mit der Messflüssigkeit in Berührung steht. Die Membran kann in der optischen Zelle optisch angeregt und die Fluoreszenzstrahlung gemessen werden. Die optische Zelle wird in ein Spektrofluorometer (Pekin-Elmer LS-50) gebracht und das Absorptions- und Emmissionsspektrum gemessen. Ferner wird die relative Fluoreszenzquantenausbeute gemäss der von Calvert und Pitts in Photochemistry, Verlag: John Wiley and Sons Inc., Seiten 799 bis 805 (1966) beschriebenen Methode mit Fluorescein als Standard bestimmt. Die Ergebnisse sind in Tabelle 1 angegeben. Tabelle 1:
(§1) Es wird die gleiche Versuchsanordnung wie in Beispiel B1d verwendet und die Absorptions- sowie Emmissionswellenlängen auf die entsprechenden Maxima der in der Membran eingesetzten Fluorophore eingestellt. Die Membran wird mit einer wässrigen KCl-Lösung definierter Konzentration in Kontakt gebracht, indem man die Lösung mit einer Geschwindigkeit von 1 ml/min durch die Zelle pumpt und die Änderung der Fluoreszenzintensität bestimmt. Vor der Messung und nach jeder Messung wird mit Kaliumionen-freien Pufferlösungen gespült und die Fluoreszenzintensität bestimmt, um die Basislinie festzulegen. Die Erniedrigung der Fluoreszenzintensität in Prozent bei der jeweiligen Kaliumkonzentration für den Fluorophor gemäss Beispiel A5 (Membran B1) sind in der Tabelle 3 angegeben.

[4] = pKa determination from fluorescence intensity as a function of pH; settings: for pKa: 30 vol% methanol / 70 vol% phosphate buffer, pH 6
Text: as §2

[5] = Optical sodium determination with sensor membrane (decrease of fluorescence intensity); settings: buffer pH 5, Polyurethan (Tecoflex) membrane with Natrium Ionophor V
Procedure: as §1, with “angegeben. Tabelle 3:” for “angegeben.”
Es wird wie in Beispiel C1 verfahren und die Natriumionenkonzentration mit einer Membran aus 2 mg Fluorophor gemäss Beispiel A5, 30 mg Natriumionophor (4-Octadecanoyloxymethyl-N,N,N,N-tetracyxlohexyl- 1 ,2-phenylendioxy-diacetamid, Fluka Natrium Ionophor V, Katalog Nr. 71738), 2 mg Kalium-tetrakis(4-chlorphenyl)borat, 75 mg Polyurethan (Tecoflex®), 160 mg Bis-2-ethylhexyl-sebacat als Weichmacher und 1 ml Tetrahydrofuran bestimmt. Der Sensor wird einer Pufferlösung bei pH 5 (0,1 Mol Tris-hydroxymethyl-aminomit-methan und 1M HCl) unterschiedlichen Natriumkonzentrationen ausgesetzt. Die Ergebnisse sind in Tabelle 6 angegeben.

[6] = Optical calcium determination with sensor membrane (decrease of fluorescence intensity); settings: buffer pH 5, Polyurethan (Tecoflex) membrane with Kalzium Ionophor I
Procedure: as §1, with “angegeben. Tabelle 3:” for “angegeben.”
Es wird wie in Beispiel C1 verfahren und die Kalziumionenkonzentration mit einer Membran aus 2 mg Fluorophor gemäss Beispiel A5, 30 mg Kalziumionophor ((-)-(R,R)-N,N-[Bis(11-ethoxycarbonyl)undecyl]-N,N-4,5-tetramethyl-3,6-dioxaoctandia mid, Fluka Kalzium Ionophor I, Katalog Nr. 21192), 6 mg Kalium-tetrakis(4-chlorphenyl)borat, 75 mg Polyurethan (Tecoflex®), 160 mg Bis-2-ethylhexyl-sebacat als Weichmacher und 1 ml Tetrahydrofuran bestimmt. Der Sensor wird einer Pufferlösung bei pH 5 (0,02M NaOH und Essigsäure) unterschiedlichen Kalziumkonzentrationen ausgesetzt. Die Ergebnisse sind in Tabelle 7 angegeben.

| SMILES | Änderung Fluoreszenzintensität [2] [Prozent] | pKa [4] | % Erniedrigung Fluoreszenzintensität ([3]; Kalium-Konzentration 0,1 mM) [%] | % Erniedrigung Fluoreszenzintensität ([3]; Kalium-Konzentration 0,5 mM) [%] | % Erniedrigung Fluoreszenzintensität ([3]; Kalium-Konzentration 1,0 mM) [%] | % Erniedrigung Fluoreszenzintensität ([3]; Kalium-Konzentration 5,0 mM) [%] | % Erniedrigung Fluoreszenzintensität ([3]; Kalium-Konzentration 10,0 mM) [%] | % Erniedrigung Fluoreszenzintensität ([3]; Kalium-Konzentration 100,0 mM) [%] | further results |
| --- | --- | --- | --- | --- | --- | --- | --- | --- | --- |
| CCCCCCCCNc1ccc2cc3ccc(NCCCCCCCC)cc3nc2c1 [Beispiel A1, 3,6-Bis(n-octylamino)-acridin] | 44 | 10 | 5 | 15 | 25 | 39 | 45 | 75 | – |
| CCCCCCC(=O)Nc1ccc2cc3ccc(NC(=O)CCCCCC)cc3nc2c1 | 24 | 10 | – | – | – | – | – | – | – |
| CCCCCCCCCCCCCCCCCCCCNc1ccc2cc3ccc(NCCCCCCCCCCCCCCCCCCCC)cc3nc2c1 [Beispiel A2, 3,6-Bis(n-eicosylamino)-acridin] | 41 | 11.1 | – | – | – | – | – | – | – |

Second part, led by results:

| Änderung Fluoreszenzintensität [2] [Prozent] | pKa [4] | SMILES | % Erniedrigung Fluoreszenzintensität ([3]; Kalium-Konzentration 0,1 mM) [%] | % Erniedrigung Fluoreszenzintensität ([3]; Kalium-Konzentration 0,5 mM) [%] | % Erniedrigung Fluoreszenzintensität ([3]; Kalium-Konzentration 1,0 mM) [%] | % Erniedrigung Fluoreszenzintensität ([3]; Kalium-Konzentration 5,0 mM) [%] | % Erniedrigung Fluoreszenzintensität ([3]; Kalium-Konzentration 10,0 mM) [%] | % Erniedrigung Fluoreszenzintensität ([3]; Kalium-Konzentration 100,0 mM) [%] | further results |
| --- | --- | --- | --- | --- | --- | --- | --- | --- | --- |
| 20 | – | CCCCCCCCN=c1ccc2c(-c3ccccc3C(=O)O)c3ccc(NCCCCCCCC)cc3oc-2c1 [Beispiel A6] | 36 | 41 | 43 | 48 | 52 | – | pKa-Wert [1]: 12,0 |
| 15 | – | CCCCCCCCCCCCCCCCCC(=O)N=c1ccc2c(-c3ccccc3C(=O)O)c3ccc(N(CC)CC)cc3oc-2c1 [Beispiel A7] | – | – | – | – | – | – | pKa-Wert ([4]; 30 Vol.-% Methanol / 70 Vol.-% Phosphatpuffer, pH 6 to 13, fluorophore 10⁻⁷ mol/l, inflection point of curve): 10,1 |
| 33 | 10.3 | CCCCCCCCCCCCCCCCCCCCN=c1ccc2c(-c3ccccc3C(=O)O)c3ccc(N(CC)CC)cc3oc-2c1 [Beispiel A5] | 20 | 35 | 45 | 53 | 60 | 68 | % Erniedrigung Fluoreszenzintensität ([5]; Natrium-Konzentration 0 mM): 0%; % Erniedrigung Fluoreszenzintensität ([5]; Natrium-Konzentration 3 mM): 15%; % Erniedrigung Fluoreszenzintensität ([5]; Natrium-Konzentration 15 mM): 41%; % Erniedrigung Fluoreszenzintensität ([5]; Natrium-Konzentration 30 mM): 54%; % Erniedrigung Fluoreszenzintensität ([5]; Natrium-Konzentration 90 mM): 72%; % Erniedrigung Fluoreszenzintensität ([5]; Natrium-Konzentration 150 mM): 79%; % Erniedrigung Fluoreszenzintensität ([5]; Natrium-Konzentration 210 mM): 83%; % Erniedrigung Fluoreszenzintensität ([5]; Natrium-Konzentration 300 mM): 86%; % Erniedrigung Fluoreszenzintensität ([6]; Kalzium-Konzentration 0,1 mM): 26,5%; % Erniedrigung Fluoreszenzintensität ([6]; Kalzium-Konzentration 0,5 mM): 43,1%; % Erniedrigung Fluoreszenzintensität ([6]; Kalzium-Konzentration 0 mM): 0%; % Erniedrigung Fluoreszenzintensität ([6]; Kalzium-Konzentration 1,0 mM): 50,6%; % Erniedrigung Fluoreszenzintensität ([6]; Kalzium-Konzentration 3,0 mM): 61,0%; % Erniedrigung Fluoreszenzintensität ([6]; Kalzium-Konzentration 5,0 mM): 65,8%; % Erniedrigung Fluoreszenzintensität ([6]; Kalzium-Konzentration 7,0 mM): 68,1%; % Erniedrigung Fluoreszenzintensität ([6]; Kalzium-Konzentration 10,0 mM): 71,0%; % Erniedrigung Fluoreszenzintensität ([3]; Kalium-Konzentration 0,01 mM): 5% |
